Converted amounts (≈) assume the structure as drawn. Residues, ends and D or L forms follow the SMILES beside them. *: point of attachment. CH2Cl = ClC*

The values that follow come from patent publication US20170020900A1, “METHODS FOR SCREENING ANTIMICROBIAL AND ANTIVIRAL COMPOUNDS AND USES THEREOF” (The General Hospital Corporation, priority 2006, published 2017).

The test system of one test is C. albicans strain MLR62. The test can be described thus: C. elegans-Candida killing assay, compound library screen in 96-well plates. In kind it is in vivo, Candida albicans. The settings on record: for Killing: glp-4, sek-1 nematodes, day 6, compound 33.33 μg/ml, 13.33 μg/ml, or 6.67 mM depending on library. How it is done:
For testing the efficacy of chemical compounds, C. albicans strain MLR62 was inoculated into 2 ml of YPD and grown at 30° C. for 24 hours; 10 μl of the culture was spread on 35-mm tissue-culture plates (Falcon) containing brain heart infusion (BHI) agar (Difco) with kanamycin (45 μg/ml), ampicillin (100 μg/ml), and streptomycin (100 μg/ml). The plates were incubated at 30° C. for 24 hours. C. elegans animals at the L4 developmental stage (grown as detailed above under C. elegans liquid medium killing assays) were transferred from a lawn of E. coli HB101 onto C. albicans lawns on BHI medium, incubated at 25° C. for 30 minutes, and then pipetted in 50 μl into 96-well plate wells that contained 100 μl liquid media (79% of M9 buffer, 20% BHI media, 2 μM cholesterol and 90 μg/ml kanamycin). C. elegans glp-4; sek-1 nematodes were pipetted into 96-well plates that contained compounds from chemical libraries. Library 1361 was assembled by Biomol and contains well-characterized compounds that affect many different aspects of cellular pathways. The NINDS custom collection (plates 501-503) was put together by MicroSource Discovery Systems for the National Institute of Neurological Disorders and Stroke (NINDS), the Huntington's Disease Society of America (HDSA), the Amyotrophic Lateral Sclerosis (ALS) Association, and the Hereditary Disease Foundation (HDF). It mostly contains FDA approved drugs. The Prestwick library (plate 1569) contains compounds that are known to be safe and bioactive in humans. The majority of the compounds are marketed drugs.
On day 6, nematodes were evaluated for survival, filament formation and optical density. The plates were incubated at 25° C. and examined on day 6 for survival with a Nikon SMZ645 dissecting microscope. In addition, images were obtained using a CellWorx High Content Cell Analysis System (Applied Precision) at 4× magnification. Dead worms were counted but not removed. […] Each compound was also scored by the number of dead worms in the well that developed hyphea. […] Compounds were categorized as having a minimal effect on filament formation if 25-75% of the dead worms developed hyphea.
Approximately 25 nematodes were used to analyze each chemical compound tested. Two controls were used in all plates. […] In this pilot screen, we considered a compound as a “hit” when survival in the compound well with was 50% and above of the median survival of the control wells. Depending on the compound library, the final concentration of the compounds was 33.33 μg/ml, 13.33 μg/ml, or […].

Test [1] relates to E. faecalis. Put plainly: Bacterial colonization of the nematode intestine (CFU per worm). The settings on record: 100% = 3.28 × 10^4 CFU/worm. In kind it is in vivo, Enterococcus faecalis. As for the experimental part:
Infected worms were washed three times with M9 buffer containing 1 mM sodium azide. Approximately 10 worms were transferred to a 2 ml microcentrifuge tube and the volume was brought to 250 μl. Fifty μl of buffer was removed and plated to determine the number of external CFU.

For test [2], the system named is E. faecalis strain MMH594. Put plainly: MIC, 2-fold broth microdilution in BHI media (NCCLS). The settings on record: Enterococcus faecalis, E30 value is at its aqueous solubility limit, read-out: MIC. The format is cell-based, Enterococcus faecalis. How it is done: Worm survival was scored manually after 6 days of incubation. […] MICs were determined against E. faecalis strain MMH594 using 2-fold dilution in BHI media according to the broth microdilution protocol of the NCCLS (CLSI) (National Committee for Clinical Laboratory Standards, Approved Standard M7-A5; Methods for Dilution Antimicrobial Susceptibility Tests for Bacteria that Grow Aerobically, Villanova, Pa.: NCCLS (2000)).

For test [3], the system named is E. faecalis. Put plainly: Curing of a nematode E. faecalis infection on solid medium by antibiotic treatment. The format is in vivo, Enterococcus faecalis. The settings on record: worms transferred to E. faecium lawns. As for the experimental part: FIGS. 11A-11D show the curing of a nematode E. faecalis infection on solid medium by antibiotic treatment. FIG. 11A is a graph depicting the Kaplan-Meier survival curves of wild-type N2 C. elegans feeding continuously on lawns of E. faecalis (Efs) V583 (▴) or E. faecium (Efm) DO (▾). Nematodes feeding for 24 hours on E. faecalis and subsequently transferred to lawns of E. faecium (▪) die with an LT50 of 14.9 days. Error bars equal SEM. […] FIG. 11C is a graph showing the antibiotic concentrations required to promote rescue of E. faecalis infected N2 nematodes. […] Error bars are standard deviations. […] Error bars equal SEM.
N2 or glp-4(bn2ts); sek-1(km4) worms were synchronized by isolating eggs from gravid adults, hatching the eggs overnight in M9 buffer, and plating L1-stage worms onto lawns of E. coli on NGM agar media. Worms were grown to sterile, young adults by incubation at 25° C. for 48 to 52 hours, washed off the plates with M9 buffer, resuspended and washed in M9 buffer, deposited onto lawns of E. faecalis grown on BHI agar plates containing kanamycin at 80 μg/ml to inhibit E. coli growth, incubated for 8 to 12 hours at 25° C., and resuspended in M9 buffer. For assays using agar media, approximately 35 infected worms were washed and then deposited onto 35 mm plates containing the appropriate antibiotics. Plates were incubated at 25° C. and scored for worm survival at regular intervals. Worms were considered dead if they were unresponsive to touch with a platinum wire pick. For the initial assays using liquid media, approximately 80 infected worms were transferred to wells of a 6 well plate containing 2 ml media consisting of 10% BHI 80 μg/ml kanamycin, 90% M9 buffer, and the appropriate antibiotics. The plates were incubated without agitation at 25° C. and 80-85% relative humidity.

As for `CCCCC(C)(O)C/C=C/[C@H]1[C@H](O)CC(=O)[C@@H]1CCCCCCC(=O)O` (mixture of isomers) [Misoprostol, free acid], the Killing in the test on C. albicans strain MLR62 was 0.464.

Take `CCCCCCCCCCCCCCC[C@H](O)[C@@H](N)CO` (racemic) [DL-Dihydrosphingosine]: the Killing with C. albicans strain MLR62 stood at 0.485. Still for that read-out and setting: to `CCCCC/C=C\C/C=C\C/C=C\C=C\[C@H](CCCC(=O)O)OO` [5 (S) HPETE] belongs 0.261; to `CCCCCCCCCCC/C=C\C(C)(C)/C=C\CCCC(=O)O` [7,7-Dimethyleicosadienoic acid], 0.304; to `CCCCC[C@@H](/C=C/C=C\C/C=C\C/C=C\CCCC(=O)O)OO` [15 (S) HPETE], 0.412. The compound `N#CC(=Cc1ccc2[nH]ccc2c1)C(N)=C(C#N)C#N` [AG-370] gave a Killing with C. albicans strain MLR62 of 0.111. Still for that read-out and setting: to `N#C/C(=C/c1ccc(O)c(O)c1)C(=O)NCc1ccccc1` [AG-490] belongs 0.462; to `COc1cc2ncnc(Nc3cccc(Cl)c3)c2cc1OC` [AG-1478], 0.3; to `C[C@H](N)C(=O)N[C@@H](C)C(=O)N[C@@H](Cc1ccccc1)C(=O)CCl` [ALA-ALA-PHE-CMK] (H-Ala-Ala-Phe-CH2Cl), 0.448.

For `CC(=O)N[C@@H](CSC/C=C(\C)CC/C=C(\C)CCC=C(C)C)C(=O)O` [Acetyl (N) s farnesyl 1 cys], in the test with C. albicans strain MLR62, the Killing was found to be 0.4. `Cc1n[nH]c(=O)[nH]c1=O` [Azathymine, 6] showed a Killing in the test on C. albicans strain MLR62 of 0.480. Same read-out and setting: the result for `CO/C1=C\C(C)=C\[C@@H](C)[C@@H](O)[C@@H](C)C/C(C)=C/C=C/[C@H](OC)[C@@H]([C@@H](C)[C@@H](O)[C@H](C)[C@@]2(O)C[C@@H](O)[C@H](C)[C@@H](C(C)C)O2)OC1=O` [Bafilomycin A1] reads 0.333. As to `O=C(/C=C/c1ccc(O)c(O)c1)OCCc1ccccc1` [Caffeic acid phenethyl ester], the “fluorescence within the nematode intestine (GFP-expressing C. albicans)” value in the test with C. albicans strain MLR62 (FIG. 18A) was “no fluorescence within the intestine”. In the case of `O=C(NC(NC(=S)Nc1ccc([N+](=O)[O-])cc1)C(Cl)(Cl)Cl)c1cccc([N+](=O)[O-])c1` (stereo not shown) [Compound E1], the “Amt. Colonization vs untreated” value in the test on E. faecalis [1] was determined as 1%. Besides, the MIC in test [2] is 31.3 µg/mL (≈ 63.5 µM).

Regarding `O=C(CCN1C(=O)/C(=C2/SC(=S)N(CCC(=O)Nc3ccccc3C(=O)O)C2=O)SC1=S)Nc1ccccc1C(=O)O` [Compound F1], the “Amt. Colonization vs untreated” value in the test with E. faecalis [1] came to 3%. Also, in test [2], the MIC was above 125 µg/mL. Regarding `O=c1[nH]c2ccc(/N=C/c3cc(I)cc(I)c3O)cc2[nH]1` [Compound H1], the “Amt. Colonization vs untreated” value in the test on E. faecalis [1] came to 1%. Also, in test [2], the MIC turned out to be 15.6 µg/mL (≈ 30.9 µM). As to `O=C1c2ccccc2-c2ncnc3ccc(NC4CCCCC4)c1c23` [Compound J1], the “Amt. Colonization vs untreated” value in the test on E. faecalis [1] is recorded as 11%. Further, in test [2], the MIC came out at 2 µg/mL (≈ 6.07 µM).

As to `COc1ccc(/C=C/C2=CCN(Cc3ccccc3)CC2)cc1` [Compound K1], the “Amt. Colonization vs untreated” value in the test on E. faecalis [1] turned out to be 61%. In addition, the MIC in test [2] is above 125 µg/mL.

Take `c1ccc(-c2ccc(CN3CCN(c4ccccn4)CC3)cc2)cc1` [Compound L1]: the “Amt. Colonization vs untreated” value in the test with E. faecalis [1] was 101%. The MIC in test [2] was above 125 µg/mL. The corresponding values for `CC1(C)C(C=C(Cl)Cl)C1C(=O)NCCCOC(=O)Nc1ccc(Cl)cc1` (stereo not shown) [Compound M1] are 8% and above 125 µg/mL. In the same order, the values of `CC(Oc1cccc(Cl)c1)C(=O)N/N=C/c1cc([N+](=O)[O-])ccc1O` (stereo not shown) [Compound N1] are 5% and 3.9 µg/mL (≈ 10.7 µM). The corresponding values for `O=[N+]([O-])c1cc(O)ccc1/C=N/Nc1nc(NCc2ccccc2)nc(N2CCOCC2)n1` [Compound O1] are 8% and 15.6 µg/mL (≈ 34.6 µM).

For the compound `C=C1[C@@H](C)[C@H]2[C@H](Cc3ccccc3)NC(=O)[C@]23OC(=O)/C=C/[C@H](O)CCC[C@@H](C)C/C=C/[C@H]3[C@@H]1O` [Cytochalasin B], the Killing with C. albicans strain MLR62 was found to be 0.438. Same read-out and setting: the result for `CC/C=C\C/C=C\C/C=C\C/C=C\C/C=C\CCCC(=O)O` [Eicosapentaenoic acid (20:5 n-3)] reads 0.448; that for `COC(=O)c1c(C)[nH]c(C)c1C(=O)c1ccccc1Cc1ccccc1` [FPL-64176], 0.429. Same read-out and setting: to `CCCCC/C=C\C[C@@H](O)/C=C/C=C/C=C\[C@@H](O)CCCC(=O)O` [Leukotriene B4] belongs 0.483; to `CCCCC[C@H](O)/C=C/C=C\C=C\C=C\[C@@H](O)[C@@H](O)CCCC(=O)O` [Lipoxin A4], 0.273; to `Clc1ccc2ncnc(NCc3ccc4c(c3)OCO4)c2c1` [MBCQ], 0.32. The same measure, in the same setting: the result for `C[N+]1(CCCCC[N+]2(C)CCCC2)CCCC1.O=C([O-])C(O)C(O)C(=O)O.O=C([O-])C(O)C(O)C(=O)O` [Pentolinium bitartrate] reads 0.227. In the case of `CC(=O)[C@H]1CC[C@H]2[C@@H]3CC=C4C[C@@H](OS(=O)(=O)[O-])CC[C@]4(C)[C@H]3CC[C@]12C.[Na+]` [Pregnenolone sulfate, sodium salt], the Killing in the test with C. albicans strain MLR62 was found to be 0.438. Same read-out and setting: to `N#Cc1cc2c(OCC(O)CN3CCN(C(c4ccccc4)c4ccccc4)CC3)cccc2[nH]1` (stereo not shown) [SDZ-201106] belongs 0.432. Take `CN(C)[C@@H]1C(O)=C(C(N)=O)C(=O)[C@@]2(O)C(O)=C3C(=O)c4c(O)cccc4[C@@](C)(O)[C@H]3C[C@@H]12` [Tetracycline]: the “survival of E. faecalis infected N2 C. elegans, p (Kaplan-Meier)” value is listed as 0.56 in the test on E. faecalis [3] (tetracycline 0.08 μg/ml), below 0.06 in the test with E. faecalis [3] (tetracycline 0.4 μg/ml), below 0.0014 with E. faecalis [3] (tetracycline 2 μg/ml) and below 0.0001 in the test on E. faecalis [3] (tetracycline 10 μg/ml). As to Docosatrienoic acid (22:3 n-3), in the test on C. albicans strain MLR62, the Killing stood at 0.439. On the same count and under the same terms, the result for Eicosatrienoic acid (20:3 n-3) reads 0.333; that for Hydrocortisone hemisuccinate, 0.300; that for Hydroxytacrine maleate, 0.467. Same read-out and setting: the result for Ikarugamycin reads 0.429.

Usually MIC stands for the smallest concentration in the dilution series that meets the test's criterion for growth inhibition.
